According to PubChem BioAssay AID2060615 (Molecular Pharmacology Branch, DTP, NCI, 2025):
Where “and” joins values, the source holds several entries; their conditions need not be identical. Equal entries are not always repeated.

Tested on: 496974-208-R-J2-PDC complex spheroids, growth % test/control
Assay: Anticancer human tumor 496974-208-R-J2-PDC patient-derived pancreatic carcinoma cell line growth inhibition [CLK]
Conditions: for viability, T/C: stronger effect = lower value
Text: A high-throughput screen of multi-cell type tumor spheroids was designed to identify active combinations of […] and targeted small molecules. Complex spheroids include a stromal component modeled by human endothelial cells (HUVEC) and fibroblasts modeled by human mesenchymal stem cells (MSCs). The concentration ranges selected for each drug and investigational agent were based upon clinically achievable concentrations if the clinical Cmax of the agent was known.
Compounds. The drugs and investigational agents: cirtuvivint (SM08502; NSC835563), CC-671 (NSC850746), vemurafenib (NSC761431), tapotoclax (NSC804041), sotorasib (NSC818433), adagrasib (NSC831453), MRTX-1133 (NSC836407), BAY2416964 (NSC825713), copanlisib (NSC816437), inavolisib (NSC800729), abemaciclib (NSC768073), osimertinib (NSC779217), entinostat (NSC756642), eltanexor (KPT-8602, NSC794443), venetoclax (NSC766270), ceralasertib (NSC777638), bortezomib (NSC756655), olaparib (NSC753686), talazoparib (NSC767125), alisertib (NSC759677), peposertib (NSC802822), gemcitabine (NSC613327), 5-fluorouracil (NSC19893), SN-38 (NSC673596), oxaliplatin (NSC266046), paclitaxel (NSC125973), and doxorubicin (NSC123127), were obtained from the National Cancer Institute (NCI) Developmental Therapeutics Program Chemical Repository. The FDA-approved anticancer drug set is available from the Developmental Therapeutics Program at https://dtp.cancer.gov/organization/dscb/obtaining/available plates.htm. […] The stock solutions were prepared in dimethyl sulfoxide (DMSO, Sigma-Aldrich, St. Louis, MO, cat. D2650), except for the platinum complexes which were prepared in saline (Quality Biological, Gaithersburg, MD, cat. 114-055-101), at 800-fold the tested concentration and stored at -70 degrees C prior to their use. All drugs and investigational agents were tested over a range starting from a high concentration at or near the clinical Cmax and decreasing in half-log increments. If the clinical Cmax for an agent had not been determined, the highest concentration tested was 10 microM.
Cell Culture. All cells were maintained in an incubator at 37 degrees C and 5% CO2 with 95% humidity. The PDC lines were cultured according to standard operating procedures established by the NCI PDMR. Briefly, all PDCs were thawed and cultured in Matrigel-coated flasks prepared with a working solution of 1X Ham's F-12 nutrient mix, without supplementation (Invitrogen, Waltham, MA, cat. 11765054), 100 U/mL penicillin-streptomycin (Invitrogen, cat. 15140122), and 2.5% Matrigel (Corning Inc., Corning, NY, cat. 354248) for the first three passages. The 947758-054-R-J2-PDC line was cultured in 6B/Colon 1A media, which includes advanced DMEM/F-12 (Thermo Fisher Scientific, cat. 12634028), 10 mM HEPES (Thermo Fisher Scientific, cat. 15630080), 1X GlutaMAX supplement (Thermo Fisher Scientific, cat. 35050061), 0.1 mg/mL primocin (InvivoGen, cat. ant-pm-2), 10% defined fetal bovine serum, heat inactivated (HyClone Laboratories Inc., cat. SH30070.03HI), 1.25 mM N-Acetyl-L-cysteine (Sigma-Aldrich, cat. A9165), 10 mM nicotinamide (Sigma-Aldrich, cat. N0636), 1X B-27 supplement (Thermo Fisher Scientific, cat. 17504044), 1X N-2 supplement (Thermo Fisher Scientific, cat. 17502048), and 10 microM Y-27632 dihydrochloride (Tocris Bioscience, cat. 1254). The 876862-298-R-J1-PDC was cultured in 6E media, which includes all 6B/Colon 1A media components plus 50% L-WRN conditioned media (ATCC, cat. CRL-3276), 50 ng/mL recombinant human EGF recombinant protein (hEGF; Thermo Fisher Scientific, cat. PHG0311), 10 ng/mL recombinant human fibroblast growth factor 10 (hGFG-10; PeproTech, cat. 100-26), 1 ng/mL recombinant human fibroblast growth factor 2 (hFGF-2; PeproTech, cat. 100-18B), and 1 µM prostaglandin E2 (PGE2; Tocris, cat. 2296). The 227483-062-R1-J1-PDC line was cultured in Panc media, containing all 6E components except hFGF-2, with the addition of 500 nM SB-431542 (Selleckchem, cat. S1067) and 10 nM gastrin (Tocris, cat. 3006). […]
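Further: spheroids exposed to the drugs for 7 days before readout.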
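Wherever viability, T/C is given: 100% = DMSO vehicle control wells.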

SMILES	viability, T/C (compound 0.0316 µM)	viability, T/C (compound 0.1 µM)	viability, T/C (compound 0.316 µM)	viability, T/C (compound 1 µM)	viability, T/C (compound 3.16 µM)	viability, T/C (compound 10 µM)	IC50 (curve of compound)	other results
C#Cc1c(F)ccc2cc(O)cc(-c3ncc4c(N5CC6CCC(C5)N6)nc(OCC56CCCN5CC(F)C6)nc4c3F)c12 (stereo not drawn)	63.5% and 68.8%	57.4% and 58.6%	48.7% and 48%	48.6% and 46.5%	44.9% and 50.8%	38% and 43.1%	0.471 µM and 0.364 µM	
C=C(F)C(=O)N1CCN(c2nc(OCC3CCCN3C)nc3c2CCN(c2cccc4cccc(Cl)c24)C3)CC1CC#N (stereo not drawn)	111% and 105%	108% and 95.4%	97% and 89.5%	95.8% and 87.1%	93.5% and 98.2%	2.37% and 3.13%	5.48 µM and 5.56 µM	
C=CC(=O)N1CCN(c2nc(=O)n(-c3c(C)ccnc3C(C)C)c3nc(-c4c(O)cccc4F)c(F)cc23)C(C)C1 (stereo not drawn)	112% and 102%	108% and 87.1%	109% and 91.7%	111% and 97.7%	107% and 108%	86.8% and 80.7%	> 10 µM	
C=CC(=O)Nc1cc(Nc2nccc(-c3cn(C)c4ccccc34)n2)c(OC)cc1N(C)CCN(C)C							> 0.3 µM	viability, T/C (compound 0.000949 µM): 102% and 103%; viability, T/C (compound 0.003 µM): 99.3% and 105%; viability, T/C (compound 0.00949 µM): 86% and 93.1%; viability, T/C (compound 0.03 µM): 85.4% and 94.9%; viability, T/C (compound 0.0949 µM): 98.1% and 88.5%; viability, T/C (compound 0.3 µM): 70.9% and 70.3%
CC(C)CC(NC(=O)C(Cc1ccccc1)NC(=O)c1cnccn1)B(O)O (stereo not drawn)							0.00385 µM	viability, T/C (compound 0.000949 µM): 99.9%; viability, T/C (compound 0.003 µM): 63.8%; viability, T/C (compound 0.00949 µM): 0.44%; viability, T/C (compound 0.03 µM): 0.67%; viability, T/C (compound 0.0949 µM): 0.24%; viability, T/C (compound 0.3 µM): 0.27%
CC(CO)NC(=O)c1cc(-c2ccc(Cl)cc2)nn(-c2cnn(C)c2)c1=O (stereo not drawn)	106% and 99.5%	105% and 97.1%	96.2% and 100%	85.5% and 96.2%	91.6% and 91.4%	42.6% and 52.9%	8.39 µM and > 10 µM	
CC(Nc1ccc2c(c1)OCCn1cc(N3C(=O)OCC3C(F)F)nc1-2)C(N)=O (stereo not drawn)	89.2% and 89.5%	65.6% and 63.4%	39.2% and 36.6%	18.8% and 22.9%	13.1% and 14.9%	7.32% and 10.9%	0.195 µM and 0.18 µM	
CC1(C)CCC(CN2CCN(c3ccc(C(=O)NS(=O)(=O)c4ccc(NCC5CCOCC5)c([N+](=O)[O-])c4)c(Oc4cnc5[nH]ccc5c4)c3)CC2)=C(c2ccc(Cl)cc2)C1	115% and 95.7%	89% and 88.2%	99% and 101%	99.4% and 99.5%	96.8% and 94.7%	43.4% and 40.6%	8.67 µM and 8.19 µM	
CC1COCCN1c1cc(C2(S(C)(=N)=O)CC2)nc(-c2ccnc3[nH]ccc23)n1 (stereo not drawn)	119% and 107%	105% and 97.9%	85.5% and 91%	94.4% and 89.3%	57.5% and 62%	36% and 44.6%	5.36 µM and 7.19 µM	
CCCS(=O)(=O)Nc1ccc(F)c(C(=O)c2c[nH]c3ncc(-c4ccc(Cl)cc4)cc23)c1F	108% and 106%	92.2% and 91.8%	100% and 95.3%	108% and 93.8%	87.8% and 93.4%	36.3% and 21.7%	7.38 µM and 6.35 µM	
CCN1CCN(Cc2ccc(Nc3ncc(F)c(-c4cc(F)c5nc(C)n(C(C)C)c5c4)n3)nc2)CC1	87.1% and 90.3%	82.4% and 97.8%	90.3% and 92.8%	96.5% and 103%			> 1 µM	viability, T/C (compound 0.00316 µM): 102% and 112%; viability, T/C (compound 0.01 µM): 93.9% and 90.8%
CCc1c2c(nc3ccc(O)cc13)-c1cc3c(c(=O)n1C2)COC(=O)[C@]3(O)CC	25.7% and 35.4%	17.4% and 23.2%	9.88% and 12.9%	2.2% and 3.2%			0.00604 µM and 0.00848 µM	viability, T/C (compound 0.00316 µM): 67.2% and 61.3%; viability, T/C (compound 0.01 µM): 32.4% and 47.9%
CN1CCN(c2cc(C(=O)Nc3cc4cc(-c5cnn(C)c5)ccc4cn3)ccn2)CC1	103% [middle of 12 runs]	87.9% [middle of 12 runs]	6.96% [middle of 11 runs]	1.74% [middle of 12 runs]	0.79% [middle of 12 runs]	0.34% [middle of 8 runs]		IC50 (compound alone, run of 09/18/2023): 171 nM [middle of 11 runs]
CNC(=O)c1ccc(Nc2nc(OC3CCCC3)c3c(-c4ccc5nc(C)oc5c4)c[nH]c3n2)c(OC)c1	97.8% [middle of 7 runs]	85.7% [middle of 10 runs]	78.1% [middle of 10 runs]	70.6% [middle of 10 runs]	62.4% [middle of 10 runs]	57.3% [middle of 10 runs]		IC50 (compound alone, run of 09/19/2023): > 10 µM
COC1C=CCC(C)C(C)S(=O)(=O)NC(=O)c2ccc3c(c2)N(CC2CCC21)CC1(CCCc2cc(Cl)ccc21)CO3 (stereo not drawn)	99.2% and 100%	95.3% and 65.2%	89.4% and 82.5%	75.1% and 74.3%	60.6% and 58.6%	43.4% and 26%	6.38 µM and 4.15 µM	
COc1c(OCCCN2CCOCC2)ccc2c3n(c(=NC(=O)c4cnc(N)nc4)nc12)CCN3	32.8% and 28.6%	9.98% and 14.7%	7.88% and 8.03%	3.01% and 3.54%			0.0167 µM and 0.0144 µM	viability, T/C (compound 0.00316 µM): 93.4% and 97.4%; viability, T/C (compound 0.01 µM): 64.2% and 60%
Cn1ncnc1[C@H]1c2n[nH]c(=O)c3cc(F)cc(c23)N[C@@H]1c1ccc(F)cc1	93.3% and 95.1%	86% and 104%					> 0.1 µM	viability, T/C (compound 0.000316 µM): 109% and 106%; viability, T/C (compound 0.001 µM): 103% and 99.5%; viability, T/C (compound 0.00316 µM): 90.4% and 101%; viability, T/C (compound 0.01 µM): 95.2% and 99.5%
NC(=O)C(=Cn1cnc(-c2cc(C(F)(F)F)cc(C(F)(F)F)c2)n1)c1cncnc1							0.106 µM and 0.135 µM	viability, T/C (compound 0.00949 µM): 97.8% and 78.4%; viability, T/C (compound 0.03 µM): 71.3% and 68.7%; viability, T/C (compound 0.0949 µM): 57.4% and 59.5%; viability, T/C (compound 0.3 µM): 29.5% and 32%; viability, T/C (compound 0.949 µM): 16% and 23.8%; viability, T/C (compound 3 µM): 11.6% and 13.4%
Nc1ccccc1NC(=O)c1ccc(CNC(=O)OCc2cccnc2)cc1	104% and 112%	86.3% and 98.7%	85.9% and 86.6%	77.5% and 72.4%	74.1% and 77.9%	0.53% and 0.83%	4.37 µM and 4.16 µM	
Nc1ccn(C2OC(CO)C(O)C2(F)F)c(=O)n1 (stereo not drawn)	89.3% and 93.5%	67.2% and 76.4%	57.7% and 72.4%	44.9% and 58%	50.7% and 63.3%	44.3% and 53.2%		
O=C(c1cc(Cc2n[nH]c(=O)c3ccccc23)ccc1F)N1CCN(C(=O)C2CC2)CC1	99.1%	85.5%	94.7%	98.4%	95.2%	86.7%	> 10 µM	
O=c1[nH]cc(F)c(=O)[nH]1	114% and 115%	103% and 95.1%	101%	78.4% and 79.6%	55.1% and 71.4%	47.6% and 53.4%	6.83 µM and > 10 µM	
